Test results taken from patent US6906097B2, “8-azaprostaglandin analogs as agents for lowering intraocular pressure” (Allergan, Inc., priority 2002, dated 2005).

How the values were obtained:
hEP3A = biological target: T1, hEP3A (Homo sapiens, UniProt P43115); assay: Functional data, human recombinant EP3A receptor stable transfectants; format: cell-based
T1 construct: expressed in transfected cells
T1 sequence (P43115 1-390): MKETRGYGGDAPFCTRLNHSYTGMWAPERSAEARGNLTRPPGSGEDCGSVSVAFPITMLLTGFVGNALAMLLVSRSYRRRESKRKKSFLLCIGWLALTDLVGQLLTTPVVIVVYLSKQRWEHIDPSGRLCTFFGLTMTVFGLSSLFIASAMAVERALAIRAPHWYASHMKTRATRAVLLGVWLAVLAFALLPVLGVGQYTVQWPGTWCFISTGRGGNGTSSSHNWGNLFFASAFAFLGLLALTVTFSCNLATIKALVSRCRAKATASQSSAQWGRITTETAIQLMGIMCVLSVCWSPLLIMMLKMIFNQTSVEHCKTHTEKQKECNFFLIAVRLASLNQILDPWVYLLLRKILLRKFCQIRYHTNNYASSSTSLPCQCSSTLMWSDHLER
Experimental: (§1) Human Recombinant EP1, EP2, EP3, EP4, FP, TP, IP and DP Receptors: Stable Transfectants
(§2) Plasmids encoding the human EP1, EP2, EP3, EP4, FP, TP, IP and DP receptors were prepared by cloning the respective coding sequences into the eukaryotic expression vector pCEP4 (Invitrogen). The pCEP4 vector contains an Epstein Barr virus (EBV) origin of replication, which permits episomal replication in primate cell lines expressing EBV nuclear antigen (EBNA-1). It also contains a hygromycin resistance gene that is used for eukaryotic selection. […] HEK-293 cells were grown in DMEM with 10% fetal bovine serum (FBS), 250 μg ml^−1 G418 (Life Technologies) and 200 μg ml^−1 gentamicin or penicillin/streptomycin.
(§3) For transfection, the cells were grown to 50-60% confluency on 10 cm plates. The plasmid pCEP4 incorporating cDNA inserts for the respective human prostanoid receptor (20 μg) was added to 500 μl of 250 mM CaCl2. […] After 30 min, 9 ml DMEM were added to the mixture. The DNA/DMEM/calcium phosphate mixture was then added to the cells, which had been previously rinsed with 10 ml PBS. The cells were then incubated for 5 hr at 37° C. in humidified 95% air/5% CO2. The calcium phosphate solution was then removed and the cells were treated with 10% glycerol in DMEM for 2 min. The glycerol solution was then replaced by DMEM with 10% FBS. The cells were incubated overnight and the medium was replaced by DMEM/10% FBS containing 250 μg ml^−1 G418 and penicillin/streptomycin. The following day hygromycin B was added to a final concentration of 200 μg ml^−1.
(§4) Ten days after transfection, hygromycin B resistant clones were individually selected and transferred to a separate well on a 24 well plate. At confluence each clone was transferred to one well of a 6 well plate, and then expanded in a 10 cm dish. Cells were maintained under continuous hygromycin selection until use.

hEP4 [1] = biological target: T2, hEP4 (Homo sapiens, UniProt P35408); assay: Functional data, human recombinant EP4 receptor stable transfectants; format: cell-based
T2 construct: expressed in transfected cells
Experimental: as §1, §2, §3, §4

hEP4 [2] = biological target: T2, hEP4; assay: Radioligand binding, hEP4; details: [3H]PGE2 competition
Experimental: as §1, §2, §3, §4
Radioligand binding studies on plasma membrane fractions prepared for cells stably transfected with the cat or human receptor were performed as follows. Cells washed with TME buffer were scraped from the bottom of the flasks and homogenized for 30 sec using a Brinkman PT 10/35 polytron. TME buffer was added as necessary to achieve a 40 ml volume in the centrifuge tubes. TME is comprised of 50 mM TRIS base, 10 mM MgCl2, 1 mM EDTA; pH 7.4 is achieved by adding 1 N HCl. The cell homogenate was centrifuged at 19,000 rpm for 20-25 min at 4° C. using a Beckman Ti-60 or Ti-70 rotor. The pellet was then resuspended in TME buffer to provide a final protein concentration of 1 mg/ml, as determined by Bio-Rad assay. Radioligand binding assays were performed in a 100 μl or 200 μl volume.
The binding of [^3H](N) PGE2 (specific activity 165 Ci/mmol) was determined in duplicate and in at least 3 separate experiments. Incubations were for 60 min at 25° C. and were terminated by the addition of 4 ml of ice-cold 50 mM TRIS-HCl followed by rapid filtration through Whatman GF/B filters and three additional 4 ml washes in a cell harvester (Brandel). Competition studies were performed using a final concentration of 2.5 or 5 nM [^3H](N) PGE2 and non-specific binding was determined with 10^−5 M unlabelled PGE2.

hEP1 = biological target: T3, hEP1 (Homo sapiens, UniProt P34995); assay: Functional data, human recombinant EP1 receptor stable transfectants; format: cell-based
T3 construct: expressed in transfected cells
T3 sequence (P34995 1-402): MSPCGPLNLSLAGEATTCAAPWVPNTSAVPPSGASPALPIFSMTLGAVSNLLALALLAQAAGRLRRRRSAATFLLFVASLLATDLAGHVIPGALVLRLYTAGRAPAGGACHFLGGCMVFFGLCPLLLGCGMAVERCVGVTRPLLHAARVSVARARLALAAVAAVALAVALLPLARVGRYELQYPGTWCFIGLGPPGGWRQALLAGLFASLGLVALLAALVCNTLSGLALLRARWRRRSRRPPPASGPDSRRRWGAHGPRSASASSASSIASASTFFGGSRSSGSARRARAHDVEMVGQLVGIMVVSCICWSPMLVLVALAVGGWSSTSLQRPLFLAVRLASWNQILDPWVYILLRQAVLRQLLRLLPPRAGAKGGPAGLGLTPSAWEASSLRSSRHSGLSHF
Experimental: as §1
(§5) Plasmids encoding the human EP1, EP2, EP3, EP4, FP, TP, IP and DP receptors were prepared by cloning the respective coding sequences into the eukaryotic expression vector pCEP4 (Invitrogen). The pCEP4 vector contains an Epstein Barr virus (EBV) origin of replication, which permits episomal replication in primate cell lines expressing EBV nuclear antigen (EBNA-1). It also contains a hygromycin resistance gene that is used for eukaryotic selection. The cells employed for stable transfection were human embryonic kidney cells (HEK-293) that were transfected with and express the EBNA-1 protein. These HEK-293-EBNA cells (Invitrogen) were grown in medium containing Geneticin (G418) to maintain expression of the EBNA-1 protein. HEK-293 cells were grown in DMEM with 10% fetal bovine serum (FBS), 250 μg ml^−1 G418 (Life Technologies) and 200 μg ml^−1 gentamicin or penicillin/streptomycin.
(§6) For transfection, the cells were grown to 50-60% confluency on 10 cm plates. The plasmid pCEP4 incorporating cDNA inserts for the respective human prostanoid receptor (20 μg) was added to 500 μl of 250 mM CaCl2. HEPES buffered saline×2 (2×HBS, 280 mM NaCl, 20 mM HEPES acid, 1.5 mM Na2 HPO4, pH 7.05-7.12) was then added dropwise to a total of 500 μl, with continuous vortexing at room temperature. After 30 min, 9 ml DMEM were added to the mixture. The DNA/DMEM/calcium phosphate mixture was then added to the cells, which had been previously rinsed with 10 ml PBS. The cells were then incubated for 5 hr at 37° C. in humidified 95% air/5% CO2. The calcium phosphate solution was then removed and the cells were treated with 10% glycerol in DMEM for 2 min. The glycerol solution was then replaced by DMEM with 10% FBS. The cells were incubated overnight and the medium was replaced by DMEM/10% FBS containing 250 μg ml^−1 G418 and penicillin/streptomycin. The following day hygromycin B was added to a final concentration of 200 μg ml^−1.
as §4

hTP = biological target: T4, hTP (Homo sapiens, UniProt P21731); assay: Functional data, human recombinant TP receptor stable transfectants; format: cell-based
T4 construct: expressed in transfected cells
T4 sequence (P21731 1-343): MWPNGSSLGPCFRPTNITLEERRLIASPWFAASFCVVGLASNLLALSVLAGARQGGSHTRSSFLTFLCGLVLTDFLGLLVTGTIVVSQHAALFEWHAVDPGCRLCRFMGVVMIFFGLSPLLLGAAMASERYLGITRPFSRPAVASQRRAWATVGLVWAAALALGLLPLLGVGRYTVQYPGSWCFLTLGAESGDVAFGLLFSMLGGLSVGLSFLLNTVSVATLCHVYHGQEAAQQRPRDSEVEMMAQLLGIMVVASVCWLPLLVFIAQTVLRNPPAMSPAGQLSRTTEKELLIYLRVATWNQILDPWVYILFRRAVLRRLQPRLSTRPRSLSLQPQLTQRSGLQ
Experimental: as §1, §5, §6, §4

T2 sequence (P35408 whole entry): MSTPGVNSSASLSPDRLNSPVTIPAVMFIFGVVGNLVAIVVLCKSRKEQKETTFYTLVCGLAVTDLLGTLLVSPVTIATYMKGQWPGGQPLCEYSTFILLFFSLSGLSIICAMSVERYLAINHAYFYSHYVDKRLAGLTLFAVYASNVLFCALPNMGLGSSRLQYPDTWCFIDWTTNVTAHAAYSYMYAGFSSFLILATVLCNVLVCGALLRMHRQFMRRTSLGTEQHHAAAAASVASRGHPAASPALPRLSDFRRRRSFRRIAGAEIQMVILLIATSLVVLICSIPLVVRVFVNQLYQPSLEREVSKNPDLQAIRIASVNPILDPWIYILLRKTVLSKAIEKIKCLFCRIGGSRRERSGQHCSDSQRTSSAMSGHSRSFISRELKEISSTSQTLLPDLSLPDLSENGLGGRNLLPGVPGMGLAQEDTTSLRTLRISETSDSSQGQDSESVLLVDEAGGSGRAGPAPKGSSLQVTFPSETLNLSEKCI

Row | hEP3A functional EC50 (hEP3A) | EC50 (hEP4 [1]) | IC50 (hEP4 [2]) | EC50 (hEP3A) | hEP1 functional EC50 (hEP1) | Compound | EC50 (hTP) | EC50 (hEP1)
1 | hit | 0.4 nM | 17 nM |  |  | O=C(O)CCCCCCN1C(=O)CC[C@@H]1CCC(O)Cc1cccc(C(F)(F)F)c1 (stereo partly drawn) [Example 5, 7-[2S-[3R-Hydroxy-4-(3-trifluoromethyl-phenyl)-butyl]-5-oxo-pyrrolidin-1-yl]-heptanoic acid] |  | 
2 | hit | 0.4 nM | 5 nM |  |  | O=C(O)CCCCCCN1C(=O)CC[C@@H]1/C=C/C(O)Cc1cccc(C(F)(F)F)c1 (stereo partly drawn) [Example 5a, 7-[2S-[3R-Hydroxy-4-(3-trifluoromethyl-phenyl)-but-1-enyl]-5-oxo-pyrrolidin-1-yl]-heptanoic acid] |  | 
3 |  | 2.4 nM | 18 nM | > 10000 nM |  | O=C(O)CCCCCCN1C(=O)CC[C@@H]1CCC(O)Cc1ccccc1 (stereo partly drawn) [Example 9, 7-[2S-[3R-Hydroxy-(4-phenyl)-butyl]-5-oxo-pyrrolidin-1-yl]-heptanoic acid] |  | 
4 |  | 368 nM | 600 nM |  |  | CCOC(=O)CCCCCCN1C(=O)CC[C@@H]1/C=C/C(O)Cc1ccccc1 (stereo partly drawn) [Example 10a, 7-[2S-[3R-Hydroxy-(4-phenyl)-but-1-enyl]-5-oxo-pyrrolidin-1-yl]-heptanoic acid, ethyl ester] |  | 
5 |  | 111 nM | 1200 nM |  |  | CCOC(=O)CCCCCCN1C(=O)CC[C@@H]1CCC(O)Cc1cccc(C(F)(F)F)c1 (stereo partly drawn) [Example 6, 7-[2S-[3R-Hydroxy-4-(3-trifluoromethyl-phenyl)-butyl]-5-oxo-pyrrolidin-1-yl]-heptanoic acid, ethyl ester] |  | 
6 |  | > 10000 nM | > 10000 nM |  |  | CCOC(=O)CCCCCCN1C(=O)CC[C@@H]1/C=C/C(=O)Cc1ccccc1 [Example 12a, 7-[2S-[3-Oxo-4-(phenyl)-but-1-enyl]-5-oxo-pyrrolidin-1-yl]-heptanoic acid, ethyl ester] |  | 
7 |  | 21 nM | 300 nM |  |  | CCOC(=O)CCCCCCN1C(=O)CC[C@@H]1/C=C/C(O)Cc1cccc(Cl)c1 (stereo partly drawn) [Example 2a, 7-[2S-[3R-Hydroxy-4-(chlorophenyl)-but-1-enyl]-5-oxo-pyrrolidin-1-yl]-heptanoic acid, ethyl ester] |  | 
8 |  | 54 nM | 300 nM | 324 nM | hit | O=C(O)CCCCCCN1C(=O)CC[C@@H]1/C=C/C(=O)Cc1cccc(Cl)c1 [Example 3a, 7-[2S-[4-(3-Chloro-phenyl)-3-oxo-but-1-enyl]-5-oxo-pyrrolidin-1-yl]-heptanoic acid] | > 10000 nM | 
9 |  | > 10000 nM | > 10000 nM |  |  | CCOC(=O)CCCCCCN1C(=O)CC[C@@H]1/C=C/C(=O)Cc1cccc(Cl)c1 [Example 4a, 7-[2S-[4-(3-Chloro-phenyl)-3-oxo-but-1-enyl]-5-oxo-pyrrolidin-1-yl]-heptanoic acid, ethyl ester] |  | 
10 |  | 1020 nM |  |  |  | CCOC(=O)CCCCCCN1C(=O)CC[C@@H]1CCC(O)Cc1ccccc1 (stereo partly drawn) [Example 10, 7-[2S-[3R-Hydroxy-(4-phenyl)-butyl]-5-oxo-pyrrolidin-1-yl]-heptanoic acid, ethyl ester] |  | 
11 |  | > 10000 nM | > 10000 nM | > 10000 nM |  | CCOC(=O)CCCCCCN1C(=O)CC[C@@H]1/C=C/C(=O)Cc1cccc(C(F)(F)F)c1 [Example 8a, 7-[2S-[3-Oxo-4-(trifluoromethylphenyl)-but-1-enyl]-5-oxo-pyrrolidin-1-yl]-heptanoic acid, ethyl ester] |  | 
12 |  | > 10000 nM | 8900 nM |  |  | CCOC(=O)CCCCCCN1C(=O)CC[C@@H]1CCC(=O)Cc1ccccc1 [Example 12, 7-[2S-[3-Oxo-4-(phenyl)-butyl]-5-oxo-pyrrolidin-1-yl]-heptanoic acid, ethyl ester] |  | 
13 |  | 7160 nM | > 10000 nM |  |  | CCOC(=O)CCCCCCN1C(=O)CC[C@@H]1CCC(=O)Cc1cccc(C(F)(F)F)c1 [Example 8, 7-[2S-[3-Oxo-4-(trifluoromethylphenyl)-butyl]-5-oxo-pyrrolidin-1-yl]-heptanoic acid, ethyl ester] |  | 
14 |  | 65 nM | 1000 nM |  |  | CCOC(=O)CCCCCCN1C(=O)CC[C@@H]1CCC(O)Cc1cccc(Cl)c1 (stereo partly drawn) [Example 2, 7-[2S-[3R-Hydroxy-4-(chlorophenyl)-butyl]-5-oxo-pyrrolidin-1-yl]-heptanoic acid, ethyl ester] |  | 

Row | Compound | hEP3A functional EC50 (hEP3A) | EC50 (hEP4 [1]) | IC50 (hEP4 [2]) | EC50 (hEP3A) | hEP1 functional EC50 (hEP1) | EC50 (hTP) | EC50 (hEP1)
15 | O=C(O)CCCCCCN1C(=O)CC[C@@H]1CCC(=O)Cc1cccc(C(F)(F)F)c1 [Example 7, 7-[2S-[3-Oxo-4-(trifluormethylphenyl)-butyl]-5-oxo-pyrrolidin-1-yl]-heptanoic acid] | hit | 551 nM | 2200 nM |  |  | > 10000 nM | > 10000 nM
